Source: the supplement of paper PMC10307832

How the values were obtained:
Assay in all cases: relative viability (nuclei count vs DMSO), 5 days (fraction); higher = more cells survive
[1] = compound: Cn1c(Nc2ccc(C(F)(F)F)cc2)nc2cc(Oc3ccnc(-c4ncc(C(F)(F)F)[nH]4)c3)ccc21 [RAF265] + C[C@]1(O)C[C@@H](c2nc(-c3ccc4ccc(-c5ccccc5)nc4c3)c3c(N)nccn32)C1 [Linsitinib] (partner 1 µM)
Method in brief: (§1)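 Lung cancer cell lines were seeded in 1536-well plates and dosed by pin tool the next day, with either a single drug or a fixed anchor-drug dose combined with five library-drug doses (not always all listed) spaced in √10 steps. Five days later, one step fixed the cells and stained their nuclei (final 0.05% Triton X-100, 1% formaldehyde, 1 ug/ml Hoechst), and nuclei were counted on 4× images. Relative viability is the nuclei count in treated wells divided by the count in vehicle wells, and each value is the median of duplicate plates.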

[2] = compound: Cn1c(Nc2ccc(C(F)(F)F)cc2)nc2cc(Oc3ccnc(-c4ncc(C(F)(F)F)[nH]4)c3)ccc21 [RAF265] + CC1(C)CCC(c2ccc(Cl)cc2)=C(CN2CCN(c3ccc(C(=O)NS(=O)(=O)c4ccc(N[C@H](CCN5CCOCC5)CSc5ccccc5)c(S(=O)(=O)C(F)(F)F)c4)cc3)CC2)C1 [Navitoclax] (partner 0.5 µM)
Method in brief: as §1

[3] = compound: C1=CC=C2C(=C1)C=CC(=C2SSC3=C(C=CC4=CC=CC=C43)O)O [IPA-3] + CC(=O)c1c(C)c2cnc(Nc3ccc(N4CCNCC4)cn3)nc2n(C2CCCC2)c1=O [Palbociclib] (partner 0.5 µM)
Method in brief: as §1

[4] = compound: C1=CC=C2C(=C1)C=CC(=C2SSC3=C(C=CC4=CC=CC=C43)O)O [IPA-3] + CS(=O)(=O)N1CCN(Cc2cc3nc(-c4cccc5[nH]ncc45)nc(N4CCOCC4)c3s2)CC1 [Pictilisib] (partner 1 µM)
Method in brief: as §1

Row | Cell Line | relative viability ([1]; first compound 0.01 µM) | relative viability ([1]; first compound 0.03162 µM) | relative viability ([1]; first compound 0.1 µM) | relative viability ([1]; first compound 0.3162 µM) | relative viability ([1]; first compound 1 µM) | relative viability ([2]; first compound 0.01 µM) | relative viability ([2]; first compound 0.03162 µM) | relative viability ([2]; first compound 0.1 µM) | relative viability ([2]; first compound 0.3162 µM) | relative viability ([2]; first compound 1 µM) | relative viability ([3]; first compound 0.2 µM) | relative viability ([3]; first compound 0.6325 µM) | relative viability ([3]; first compound 2 µM) | relative viability ([3]; first compound 6.325 µM) | relative viability ([3]; first compound 20 µM) | relative viability ([4]; first compound 0.2 µM) | relative viability ([4]; first compound 0.6325 µM) | relative viability ([4]; first compound 2 µM) | relative viability ([4]; first compound 6.325 µM) | relative viability ([4]; first compound 20 µM)
1 | NCI-H1355 | 0.791 | 0.67 | 0.72 | 0.458 | 0.298 | 1.01 | 0.831 | 0.919 | 0.532 | 0.264 | 0.445 | 0.395 | 0.386 | 0.405 | 0.424 | 0.396 | 0.396 | 0.466 | 0.484 | 0.401
2 | EKVX | 0.98 | 1.02 | 1.04 | 0.534 | 0.822 | 0.939 | 0.916 | 0.957 | 0.606 | 0.637 | 0.352 | 0.418 | 0.34 | 0.456 | 0.409 | 0.62 | 0.421 | 0.499 | 0.484 | 0.575
3 | NCI-H441 | 0.617 | 0.495 | 0.415 | 0.3 | 0.389 | 0.582 | – | 0.515 | 0.5 | 0.776 | 0.244 | 0.213 | 0.198 | 0.169 | 0.185 | 0.479 | 0.457 | 0.41 | 0.462 | 0.427
4 | NCI-H1975 | 0.855 | 0.712 | 0.567 | 0.43 | 0.361 | 1.17 | 0.812 | 0.912 | 0.528 | 0.324 | 0.843 | 0.555 | 0.642 | 0.54 | 0.569 | 0.342 | 0.284 | 0.316 | 0.321 | 0.259
5 | HCC-78 | 0.553 | 0.468 | 0.574 | 0.47 | 0.439 | 0.898 | 0.901 | 0.912 | 0.726 | 0.731 | 0.53 | 0.435 | 0.485 | 0.486 | 0.484 | 0.23 | 0.218 | 0.229 | 0.229 | 0.282
6 | NCI-H2085 | 0.894 | 0.945 | 0.938 | 0.98 | 0.917 | 1.17 | 1.12 | 1.16 | 1.27 | 1.09 | 0.474 | 0.457 | 0.471 | 0.436 | 0.54 | 0.44 | 0.44 | 0.447 | 0.426 | 0.535
7 | H3255 | 1 | 0.942 | 0.929 | 0.137 | 0.716 | 0.563 | 0.47 | 0.695 | 0.0727 | 0.23 | 0.306 | 0.308 | 0.29 | 0.298 | 0.272 | 0.454 | 0.465 | 0.44 | 0.573 | 0.558
8 | NCI-H2087 | 0.827 | 0.844 | 0.9 | 0.699 | 0.587 | 0.995 | 0.823 | 0.692 | 0.683 | 0.568 | 0.263 | 0.207 | 0.22 | 0.219 | 0.283 | 0.891 | 0.784 | 0.894 | 0.936 | 1.01
9 | LC-2-ad | 0.807 | 0.762 | 0.727 | 0.316 | 0.293 | 0.527 | 0.283 | 0.311 | 0.162 | 0.115 | 0.545 | 0.495 | 0.479 | 0.451 | 0.518 | 0.461 | 0.627 | 0.502 | 0.443 | 0.43
10 | PC-3 [JPC-3] | 1.03 | 0.911 | 1.04 | 0.416 | 0.722 | 0.735 | 0.754 | 0.893 | 0.304 | 0.556 | 0.537 | 0.541 | 0.538 | 0.531 | 0.477 | 0.863 | 0.774 | 0.696 | 0.668 | 0.772
11 | EBC-1 | 0.963 | 0.856 | 0.754 | 0.577 | 0.503 | 0.398 | 0.366 | 0.332 | 0.283 | 0.312 | – | – | – | – | – | 0.434 | 0.316 | 0.354 | 0.265 | 0.269
12 | HCC-15 | 0.886 | 0.835 | 0.754 | 0.639 | 0.394 | 0.734 | 0.709 | 0.7 | 0.505 | 0.464 | 0.889 | 0.78 | 0.462 | 0.697 | 0.704 | 0.853 | 0.783 | 0.724 | 0.776 | 0.841
13 | NCI-H1563 | 1.13 | 1.32 | 1.17 | 1.26 | 1.18 | – | – | – | – | – | – | – | – | – | – | 0.68 | 0.62 | 0.622 | 0.694 | 0.59
14 | COR-L 105 | 1.17 | 0.882 | 0.976 | 0.725 | 0.504 | 0.853 | 0.878 | 0.668 | 0.685 | 0.339 | 0.409 | 0.275 | 0.405 | 0.393 | 0.399 | 0.465 | 0.422 | 0.393 | 0.416 | 0.351
15 | NCI-H520 | 0.941 | 0.949 | 0.939 | 0.912 | 0.631 | 1.04 | 0.888 | 1.07 | 0.848 | 0.706 | 0.229 | 0.206 | – | 0.283 | 0.186 | 0.3 | 0.277 | 0.268 | 0.246 | 0.202
16 | LU99A | 0.471 | 0.423 | 0.323 | 0.308 | 0.273 | 0.703 | 0.688 | 0.613 | 0.514 | 0.325 | 0.437 | 0.376 | 0.425 | 0.452 | 0.394 | 0.353 | 0.317 | 0.333 | 0.321 | 0.277
